Experiment: xn = mol fraction of the nth substance listed
Conditions: Liquid, Vibrating tube method

CCC(=O)OC [methyl propanoate] + CCCCCCC
Conditions | mass density [kg/m3]
288.15 K, x1 = 0.0584 | 696.1
288.15 K, x1 = 0.1524 | 710.11
288.15 K, x1 = 0.2121 | 719.49
288.15 K, x1 = 0.2626 | 728.22
288.15 K, x1 = 0.2841 | 731.88
288.15 K, x1 = 0.3577 | 745.5
288.15 K, x1 = 0.4021 | 754.13
288.15 K, x1 = 0.4565 | 765.31
288.15 K, x1 = 0.5036 | 775.51
288.15 K, x1 = 0.5554 | 787.28
288.15 K, x1 = 0.6032 | 798.81
288.15 K, x1 = 0.651 | 810.73
288.15 K, x1 = 0.7008 | 824.05
288.15 K, x1 = 0.742 | 835.61
288.15 K, x1 = 0.7927 | 850.46
288.15 K, x1 = 0.8457 | 866.96
288.15 K, x1 = 0.953 | 903.48
288.15 K, x1 = 1 | 921.21
298.15 K, x1 = 0.0606 | 687.94
298.15 K, x1 = 0.1046 | 694.01
298.15 K, x1 = 0.1706 | 703.97
298.15 K, x1 = 0.2332 | 713.99
298.15 K, x1 = 0.2863 | 722.89
298.15 K, x1 = 0.332 | 730.95
298.15 K, x1 = 0.3827 | 740.59
298.15 K, x1 = 0.4242 | 748.73
298.15 K, x1 = 0.4831 | 760.98
298.15 K, x1 = 0.5328 | 771.82
298.15 K, x1 = 0.5887 | 784.89
298.15 K, x1 = 0.6395 | 797.24
298.15 K, x1 = 0.6831 | 808.46
298.15 K, x1 = 0.733 | 821.94
298.15 K, x1 = 0.7758 | 834.28
298.15 K, x1 = 0.8196 | 847.29
298.15 K, x1 = 0.8646 | 861.68
298.15 K, x1 = 0.9035 | 874.46
298.15 K, x1 = 0.9591 | 893.83
298.15 K, x1 = 1 | 909.1
308.15 K, x1 = 0.046 | 676.88
308.15 K, x1 = 0.0974 | 683.97
308.15 K, x1 = 0.1499 | 691.6
308.15 K, x1 = 0.2093 | 700.71
308.15 K, x1 = 0.2472 | 706.83
308.15 K, x1 = 0.2655 | 709.84
308.15 K, x1 = 0.3021 | 716.16
308.15 K, x1 = 0.3462 | 723.99
308.15 K, x1 = 0.3973 | 733.51
308.15 K, x1 = 0.4379 | 741.49
308.15 K, x1 = 0.5001 | 754.33

Source: the NIST ThermoML archive (doi:10.1021/je4009415)
